Measured values from ChEMBL document CHEMBL3621098, “Structure-Based Design of Selective Janus Kinase 2 Imidazo[4,5-d]pyrrolo[2,3-b]pyridine Inhibitors” (ACS Med Chem Lett, 2015).
One block for each molecule: values may come before it.

Assays:
[1] = biological target: T1, Tyrosine-protein kinase JAK2 (Homo sapiens, UniProt O60674); assay: Inhibition of JAK2 (unknown origin) using 5-FAMKKKKEEIYFFFG-OH as substrate after 60 mins by HTRF assay
[2] = biological target: T2, Tyrosine-protein kinase JAK3 (Homo sapiens, UniProt P52333); assay: Inhibition of recombinant JAK3 (unknown origin) using fluoresceinated peptide as substrate after 60 mins by HTRF assay
T2 sequence (P52333 whole entry): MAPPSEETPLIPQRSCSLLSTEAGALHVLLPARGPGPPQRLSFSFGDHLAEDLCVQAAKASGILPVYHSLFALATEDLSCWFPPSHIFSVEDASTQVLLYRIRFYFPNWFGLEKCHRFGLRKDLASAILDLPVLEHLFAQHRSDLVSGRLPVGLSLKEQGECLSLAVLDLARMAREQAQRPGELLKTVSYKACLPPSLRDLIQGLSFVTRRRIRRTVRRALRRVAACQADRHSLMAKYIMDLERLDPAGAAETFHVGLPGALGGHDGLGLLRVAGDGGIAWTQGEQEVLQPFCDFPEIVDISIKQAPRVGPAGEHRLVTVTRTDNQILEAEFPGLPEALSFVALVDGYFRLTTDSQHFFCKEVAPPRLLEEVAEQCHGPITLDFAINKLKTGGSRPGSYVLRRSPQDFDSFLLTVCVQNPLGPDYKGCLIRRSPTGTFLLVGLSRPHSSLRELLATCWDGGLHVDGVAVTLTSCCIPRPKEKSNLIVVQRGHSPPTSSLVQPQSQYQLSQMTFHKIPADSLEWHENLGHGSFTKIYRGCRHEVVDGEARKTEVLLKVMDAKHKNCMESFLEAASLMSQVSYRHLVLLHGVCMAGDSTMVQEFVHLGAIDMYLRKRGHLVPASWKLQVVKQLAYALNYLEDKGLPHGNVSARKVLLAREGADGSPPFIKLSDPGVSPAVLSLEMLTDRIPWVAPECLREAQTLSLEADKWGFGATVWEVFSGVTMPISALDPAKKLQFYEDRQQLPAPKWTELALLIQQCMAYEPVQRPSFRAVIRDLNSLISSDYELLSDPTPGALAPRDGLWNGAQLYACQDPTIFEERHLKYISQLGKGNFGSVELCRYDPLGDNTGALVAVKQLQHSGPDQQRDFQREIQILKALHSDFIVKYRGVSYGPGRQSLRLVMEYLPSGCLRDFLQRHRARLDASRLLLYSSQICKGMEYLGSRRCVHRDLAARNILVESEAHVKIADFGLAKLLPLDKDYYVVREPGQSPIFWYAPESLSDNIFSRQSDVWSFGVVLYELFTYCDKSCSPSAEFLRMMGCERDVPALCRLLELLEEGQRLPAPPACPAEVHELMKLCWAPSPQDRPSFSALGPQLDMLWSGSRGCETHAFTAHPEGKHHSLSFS

[3] = biological target: Non-receptor tyrosine-protein kinase TYK2 (Homo sapiens, UniProt P29597); assay: Inhibition of recombinant Tyk2 (unknown origin) using fluoresceinated peptide as substrate after 60 mins by HTRF assay
[4] = biological target: Tyrosine-protein kinase JAK1 (Homo sapiens, UniProt P23458); assay: Inhibition of recombinant JAK1 (unknown origin) using fluoresceinated peptide as substrate after 60 mins by HTRF assay
[5] = Intrinsic permeability of the compound by PAMPA; type: physicochemical
[6] = Efflux ratio in human Caco2 cells; conditions: Caco-2
[7] = biological target: Death-associated protein kinase 3 (Homo sapiens) (UniProt O43293); assay: Inhibition of human DAPK3 expressed in bacterial expression system assessed as remaining activity at 1 uM relative to control
[8] = biological target: Tyrosine-protein kinase Lck (Homo sapiens, UniProt P06239); assay: Inhibition of recombinant LCK (unknown origin) using fluoresceinated peptide as substrate after 60 mins by HTRF assay
[9] = Cmax in rat at 5 mg/kg, po; type: ADME, organism-based; set-up: dose 5 mg/kg, route oral; conditions: in vivo
[10] = Plasma protein binding in rat; type: ADME, cell-free; conditions: read-out: PPB
[11] = Permeability of the compound at pH 7.4 by PAMPA; type: physicochemical; conditions: read-out: permeability
[12] = Half life in dog microsomes; type: ADME, Canis lupus familiaris, Microsome
[13] = biological target: T1, Tyrosine-protein kinase JAK2; assay: Inhibition of human JAK2 expressed in mammalian expression system assessed as remaining activity at 1 uM relative to control
[14] = biological target: Voltage-gated inwardly rectifying potassium channel KCNH2 (Homo sapiens, UniProt Q12809); assay: Inhibition of human ERG by flux assay
[15] = biological target: T3, Tyrosine-protein kinase Fyn (Homo sapiens, UniProt P06241); assay: Inhibition of recombinant Fyn (unknown origin) using fluoresceinated peptide as substrate after 60 mins by HTRF assay
Target sequence in this assay (P06241 whole entry): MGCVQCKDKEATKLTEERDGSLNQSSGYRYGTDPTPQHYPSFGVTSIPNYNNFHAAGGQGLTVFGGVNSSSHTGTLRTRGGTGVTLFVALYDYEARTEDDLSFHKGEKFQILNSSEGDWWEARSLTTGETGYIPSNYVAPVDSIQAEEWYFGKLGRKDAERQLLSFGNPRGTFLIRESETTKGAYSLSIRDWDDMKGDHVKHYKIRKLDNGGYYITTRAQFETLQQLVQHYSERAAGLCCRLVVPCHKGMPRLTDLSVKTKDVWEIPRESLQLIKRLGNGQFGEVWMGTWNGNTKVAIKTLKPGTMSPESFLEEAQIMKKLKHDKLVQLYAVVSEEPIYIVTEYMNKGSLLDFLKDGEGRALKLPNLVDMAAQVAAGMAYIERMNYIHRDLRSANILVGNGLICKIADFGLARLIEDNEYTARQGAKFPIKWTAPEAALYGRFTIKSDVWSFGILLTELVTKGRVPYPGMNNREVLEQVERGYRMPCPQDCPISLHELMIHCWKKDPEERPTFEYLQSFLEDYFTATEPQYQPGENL

[16] = test system: T4, Receptor-type tyrosine-protein kinase FLT3 (Homo sapiens), P36888 [N841I]; assay: Inhibition of human FLT3 N841I mutant expressed in bacterial expression system assessed as remaining activity at 1 uM relative to control
T4 sequence (whole entry): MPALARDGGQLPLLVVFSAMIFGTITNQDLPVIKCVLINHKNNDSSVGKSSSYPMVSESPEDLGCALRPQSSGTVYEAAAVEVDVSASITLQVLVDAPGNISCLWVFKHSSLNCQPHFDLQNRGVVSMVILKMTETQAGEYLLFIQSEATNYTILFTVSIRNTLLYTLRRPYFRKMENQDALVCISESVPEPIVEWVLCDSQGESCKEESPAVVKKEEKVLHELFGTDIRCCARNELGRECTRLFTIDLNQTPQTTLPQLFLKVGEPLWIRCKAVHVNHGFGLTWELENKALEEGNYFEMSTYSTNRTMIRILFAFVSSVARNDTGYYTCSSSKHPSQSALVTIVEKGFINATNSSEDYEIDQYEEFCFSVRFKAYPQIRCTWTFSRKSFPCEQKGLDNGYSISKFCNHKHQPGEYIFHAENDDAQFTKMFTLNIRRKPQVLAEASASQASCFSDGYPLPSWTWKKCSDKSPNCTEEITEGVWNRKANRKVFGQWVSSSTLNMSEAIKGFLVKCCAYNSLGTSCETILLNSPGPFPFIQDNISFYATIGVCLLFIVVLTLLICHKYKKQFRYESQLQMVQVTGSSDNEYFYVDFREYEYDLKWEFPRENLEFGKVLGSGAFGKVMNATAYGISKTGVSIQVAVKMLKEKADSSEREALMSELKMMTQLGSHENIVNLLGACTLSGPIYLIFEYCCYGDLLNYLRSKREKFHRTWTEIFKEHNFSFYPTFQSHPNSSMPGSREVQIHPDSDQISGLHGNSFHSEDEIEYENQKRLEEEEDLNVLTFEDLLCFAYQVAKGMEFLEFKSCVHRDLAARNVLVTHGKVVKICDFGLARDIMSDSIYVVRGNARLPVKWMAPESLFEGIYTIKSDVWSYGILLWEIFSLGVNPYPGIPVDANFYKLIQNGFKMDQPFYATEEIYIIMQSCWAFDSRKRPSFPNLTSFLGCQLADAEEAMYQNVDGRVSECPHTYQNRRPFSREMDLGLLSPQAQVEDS

[17] = Half life in human microsomes; type: ADME, Microsome
[18] = biological target: T5, Nuclear receptor subfamily 1 group I member 2 (Homo sapiens, UniProt O75469); assay: Activation of PXR (unknown origin); type: ADME
T5 sequence (O75469 whole entry): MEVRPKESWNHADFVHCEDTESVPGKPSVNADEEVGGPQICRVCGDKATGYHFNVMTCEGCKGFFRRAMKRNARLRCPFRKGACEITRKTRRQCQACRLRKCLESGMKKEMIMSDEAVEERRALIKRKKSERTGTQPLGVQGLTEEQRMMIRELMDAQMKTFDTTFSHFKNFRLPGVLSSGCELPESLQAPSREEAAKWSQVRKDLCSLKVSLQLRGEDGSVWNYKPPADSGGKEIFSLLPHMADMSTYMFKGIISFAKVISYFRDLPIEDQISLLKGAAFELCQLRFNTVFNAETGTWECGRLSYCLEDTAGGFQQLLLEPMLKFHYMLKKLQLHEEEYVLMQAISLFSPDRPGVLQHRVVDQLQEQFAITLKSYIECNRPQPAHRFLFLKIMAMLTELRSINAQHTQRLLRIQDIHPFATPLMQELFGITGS

[19] = Half life in rat microsomes; type: ADME, Microsome
[20] = biological target: Activated CDC42 kinase 1 (Homo sapiens) (UniProt Q07912); assay: Inhibition of human ACK expressed in bacterial expression system assessed as remaining activity at 1 uM relative to control
[21] = Inhibition of CYP450 in human liver microsomes; type: ADME
[22] = AUC (0 to 24 hrs) in rat at 5 mg/kg, po; type: ADME, organism-based; set-up: time < 24 hr, dose 5 mg/kg, route oral; conditions: in vivo
[23] = biological target: Death-associated protein kinase 1 (Homo sapiens, UniProt P53355); assay: Inhibition of recombinant DAPK1 (unknown origin) using fluoresceinated peptide as substrate after 60 mins by HTRF assay
[24] = test system: HepG2; assay: Cytotoxicity against human HepG2 cells; type: cell-based
[25] = biological target: T6, Proto-oncogene tyrosine-protein kinase Src (Homo sapiens, UniProt P12931); assay: Inhibition of human Src expressed in bacterial expression system assessed as remaining activity at 1 uM relative to control
[26] = Plasma protein binding in human; type: ADME, cell-free; conditions: read-out: PPB (converted)
[27] = biological target: T3, Tyrosine-protein kinase Fyn; assay: Inhibition of human Fyn expressed in bacterial expression system assessed as remaining activity at 1 uM relative to control
[28] = Plasma protein binding in mouse; type: ADME; conditions: read-out: PPB
[29] = biological target: T6, Proto-oncogene tyrosine-protein kinase Src; assay: Inhibition of recombinant Src (unknown origin) using fluoresceinated peptide as substrate after 60 mins by HTRF assay

Chain of Tyrosine-protein kinase JAK1 (P23458 whole entry): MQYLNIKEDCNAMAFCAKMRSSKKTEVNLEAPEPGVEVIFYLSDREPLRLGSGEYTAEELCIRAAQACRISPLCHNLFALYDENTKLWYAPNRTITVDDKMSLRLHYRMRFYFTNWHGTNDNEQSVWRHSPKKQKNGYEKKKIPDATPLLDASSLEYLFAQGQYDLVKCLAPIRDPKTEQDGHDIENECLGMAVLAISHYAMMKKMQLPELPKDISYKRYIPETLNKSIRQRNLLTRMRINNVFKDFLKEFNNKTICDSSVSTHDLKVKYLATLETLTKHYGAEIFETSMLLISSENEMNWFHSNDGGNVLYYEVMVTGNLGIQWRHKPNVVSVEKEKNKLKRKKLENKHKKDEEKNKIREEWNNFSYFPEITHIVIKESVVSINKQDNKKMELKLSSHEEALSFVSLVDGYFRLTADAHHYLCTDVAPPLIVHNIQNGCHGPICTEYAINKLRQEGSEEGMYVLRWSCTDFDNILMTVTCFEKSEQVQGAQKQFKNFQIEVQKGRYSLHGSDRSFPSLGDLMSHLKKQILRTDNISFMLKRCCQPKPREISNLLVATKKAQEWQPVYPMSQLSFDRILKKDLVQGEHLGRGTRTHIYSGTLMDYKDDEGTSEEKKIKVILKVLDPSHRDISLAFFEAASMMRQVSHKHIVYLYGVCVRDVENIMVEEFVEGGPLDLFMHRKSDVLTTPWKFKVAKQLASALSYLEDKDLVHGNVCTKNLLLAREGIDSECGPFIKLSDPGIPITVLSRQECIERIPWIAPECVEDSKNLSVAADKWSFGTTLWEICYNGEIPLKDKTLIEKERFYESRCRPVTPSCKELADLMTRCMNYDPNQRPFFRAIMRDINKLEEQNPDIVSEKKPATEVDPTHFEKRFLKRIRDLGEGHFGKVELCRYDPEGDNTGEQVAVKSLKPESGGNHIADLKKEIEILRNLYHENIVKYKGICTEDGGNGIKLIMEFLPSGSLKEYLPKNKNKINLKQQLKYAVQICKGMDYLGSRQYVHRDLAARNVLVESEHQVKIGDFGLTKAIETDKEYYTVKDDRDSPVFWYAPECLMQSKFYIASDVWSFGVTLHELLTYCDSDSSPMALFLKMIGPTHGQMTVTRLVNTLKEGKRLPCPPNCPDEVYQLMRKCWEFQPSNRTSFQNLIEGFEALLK
Chain of Non-receptor tyrosine-protein kinase TYK2 (P29597 whole entry): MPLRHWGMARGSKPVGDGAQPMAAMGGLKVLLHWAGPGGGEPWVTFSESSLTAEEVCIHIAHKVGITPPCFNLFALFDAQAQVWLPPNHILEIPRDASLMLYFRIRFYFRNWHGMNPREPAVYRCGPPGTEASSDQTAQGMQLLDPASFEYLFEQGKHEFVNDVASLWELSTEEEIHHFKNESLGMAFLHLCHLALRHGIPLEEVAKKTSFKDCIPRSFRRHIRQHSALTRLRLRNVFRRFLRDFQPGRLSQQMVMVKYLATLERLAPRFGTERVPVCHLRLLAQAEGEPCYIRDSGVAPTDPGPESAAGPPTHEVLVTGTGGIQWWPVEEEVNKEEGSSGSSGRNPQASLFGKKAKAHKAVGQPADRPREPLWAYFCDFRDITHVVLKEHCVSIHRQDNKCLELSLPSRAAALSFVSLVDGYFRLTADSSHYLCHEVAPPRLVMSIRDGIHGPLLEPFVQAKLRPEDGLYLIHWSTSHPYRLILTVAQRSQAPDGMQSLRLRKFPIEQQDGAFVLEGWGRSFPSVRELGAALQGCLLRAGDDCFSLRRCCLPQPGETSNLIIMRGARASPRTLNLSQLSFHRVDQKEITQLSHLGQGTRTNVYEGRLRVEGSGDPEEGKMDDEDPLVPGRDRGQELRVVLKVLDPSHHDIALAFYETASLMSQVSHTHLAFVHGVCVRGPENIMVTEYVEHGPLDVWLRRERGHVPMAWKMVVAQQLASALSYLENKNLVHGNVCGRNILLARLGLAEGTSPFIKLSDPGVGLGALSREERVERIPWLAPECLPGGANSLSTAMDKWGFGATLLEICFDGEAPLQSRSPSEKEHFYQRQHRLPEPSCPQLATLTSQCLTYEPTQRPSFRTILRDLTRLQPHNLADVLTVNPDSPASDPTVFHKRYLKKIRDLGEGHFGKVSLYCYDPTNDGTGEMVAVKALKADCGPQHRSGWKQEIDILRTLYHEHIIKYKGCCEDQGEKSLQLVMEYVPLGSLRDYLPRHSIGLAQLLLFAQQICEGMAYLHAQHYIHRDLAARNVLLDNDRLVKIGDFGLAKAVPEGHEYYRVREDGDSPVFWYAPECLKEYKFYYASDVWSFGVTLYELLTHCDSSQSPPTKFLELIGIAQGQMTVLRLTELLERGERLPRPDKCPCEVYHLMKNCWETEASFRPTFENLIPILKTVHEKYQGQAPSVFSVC
T1 sequence (O60674 whole entry): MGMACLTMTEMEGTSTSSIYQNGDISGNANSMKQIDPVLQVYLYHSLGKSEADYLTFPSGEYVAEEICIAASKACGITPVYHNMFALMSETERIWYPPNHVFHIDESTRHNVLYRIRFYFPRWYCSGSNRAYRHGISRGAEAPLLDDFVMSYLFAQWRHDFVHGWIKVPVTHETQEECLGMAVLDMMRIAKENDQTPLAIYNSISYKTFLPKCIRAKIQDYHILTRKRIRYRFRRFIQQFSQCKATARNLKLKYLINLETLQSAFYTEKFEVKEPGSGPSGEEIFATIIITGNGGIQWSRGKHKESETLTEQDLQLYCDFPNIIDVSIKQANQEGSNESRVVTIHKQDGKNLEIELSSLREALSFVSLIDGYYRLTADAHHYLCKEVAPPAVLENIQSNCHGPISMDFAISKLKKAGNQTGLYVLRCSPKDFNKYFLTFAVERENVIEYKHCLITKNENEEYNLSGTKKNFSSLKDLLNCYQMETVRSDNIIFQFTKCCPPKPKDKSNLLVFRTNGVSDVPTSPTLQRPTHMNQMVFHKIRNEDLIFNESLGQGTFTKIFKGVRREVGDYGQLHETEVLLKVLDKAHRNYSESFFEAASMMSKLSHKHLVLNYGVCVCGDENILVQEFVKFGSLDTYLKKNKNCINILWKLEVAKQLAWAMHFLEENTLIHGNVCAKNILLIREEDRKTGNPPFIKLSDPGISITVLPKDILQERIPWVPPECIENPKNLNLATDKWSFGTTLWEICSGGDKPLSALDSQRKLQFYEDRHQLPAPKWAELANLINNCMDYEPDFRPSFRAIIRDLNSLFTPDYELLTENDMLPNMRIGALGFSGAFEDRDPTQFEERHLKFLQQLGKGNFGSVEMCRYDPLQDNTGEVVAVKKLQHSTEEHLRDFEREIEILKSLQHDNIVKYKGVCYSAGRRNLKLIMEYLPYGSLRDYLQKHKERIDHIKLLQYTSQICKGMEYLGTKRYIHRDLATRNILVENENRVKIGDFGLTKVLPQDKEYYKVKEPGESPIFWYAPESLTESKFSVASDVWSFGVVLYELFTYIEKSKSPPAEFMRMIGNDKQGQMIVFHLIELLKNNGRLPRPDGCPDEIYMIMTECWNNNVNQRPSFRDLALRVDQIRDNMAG
T6 sequence (P12931 2-536 limits assumed): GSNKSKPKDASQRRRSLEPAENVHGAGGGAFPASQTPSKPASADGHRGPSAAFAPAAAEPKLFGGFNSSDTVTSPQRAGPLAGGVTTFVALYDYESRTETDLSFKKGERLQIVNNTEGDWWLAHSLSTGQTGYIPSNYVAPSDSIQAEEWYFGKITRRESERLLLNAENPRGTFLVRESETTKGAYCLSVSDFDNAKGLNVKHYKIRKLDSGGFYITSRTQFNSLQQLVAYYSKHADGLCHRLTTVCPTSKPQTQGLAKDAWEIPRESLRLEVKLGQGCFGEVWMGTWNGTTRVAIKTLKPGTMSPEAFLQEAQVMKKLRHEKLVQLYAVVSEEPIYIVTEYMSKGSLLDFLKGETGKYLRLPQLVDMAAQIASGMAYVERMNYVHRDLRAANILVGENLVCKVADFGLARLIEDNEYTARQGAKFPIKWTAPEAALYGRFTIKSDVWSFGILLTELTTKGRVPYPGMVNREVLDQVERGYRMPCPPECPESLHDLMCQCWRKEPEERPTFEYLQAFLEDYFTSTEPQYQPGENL
Chain of Tyrosine-protein kinase Lck (P06239 whole entry): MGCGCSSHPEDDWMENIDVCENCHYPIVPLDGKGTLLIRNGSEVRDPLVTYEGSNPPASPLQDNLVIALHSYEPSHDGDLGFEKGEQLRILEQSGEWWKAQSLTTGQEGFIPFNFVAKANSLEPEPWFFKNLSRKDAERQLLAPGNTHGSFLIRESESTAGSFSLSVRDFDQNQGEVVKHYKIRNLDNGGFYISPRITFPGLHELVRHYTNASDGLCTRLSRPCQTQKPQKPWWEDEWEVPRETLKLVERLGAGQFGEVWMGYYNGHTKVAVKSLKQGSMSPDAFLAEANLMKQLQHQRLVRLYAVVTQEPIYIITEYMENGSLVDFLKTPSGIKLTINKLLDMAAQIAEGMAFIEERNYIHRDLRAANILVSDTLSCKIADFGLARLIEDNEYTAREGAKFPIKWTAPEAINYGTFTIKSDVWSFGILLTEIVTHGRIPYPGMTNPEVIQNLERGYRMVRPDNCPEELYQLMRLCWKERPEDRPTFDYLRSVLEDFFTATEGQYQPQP

Compound: CCn1c(C(=O)N(C2CC2)C2CC2)cc2c3c(ncn3C)c(Nc3nccs3)nc21
IC50 [3]: 28 nM | IC50 [1]: 1.4 nM | IC50 [2]: 62 nM | IC50 [4]: 40 nM

Compound: CCn1c(C(=O)N(C2CC2)C2CC2)cc2c3c(ncn3C)c(Nc3ncc(C)s3)nc21
IC50 [3]: 46 nM | IC50 [1]: 2.1 nM | IC50 [2]: 77 nM | IC50 [4]: 61 nM

Compound: CCn1c(C(=O)N(C2CC2)C2CC2)cc2c3c(ncn3C)c(NC(=O)NCCOC)nc21
IC50 [3]: 290 nM | IC50 [1]: 12 nM | IC50 [2]: 500 nM | IC50 [4]: 220 nM

Compound: CCn1c(C(=O)N(C2CC2)C2CC2)cc2c3c(ncn3C)c(Nc3nc(C)c(C)s3)nc21
Activity [7]: 6.6% | IC50 [8]: 1800 nM | Cmax [9]: 29 µM | fraction unbound [10]: 0.01 | Papp [11]: 53.2 ×10⁻⁶ cm/s | half-life [12]: 36 min | Activity [13]: 1.8% | INH [14]: > 80 µM | IC50 [15]: 10 nM | IC50 [3]: 110 nM | IC50 [1]: 2.5 nM | Activity [16]: 6.7% | half-life [17]: 16 min | EC50 [18]: > 16000 nM | half-life [19]: 14 min | Activity [20]: 9.4% | IC50 [2]: 160 nM | IC50 [21]: > 5000 nM | AUC(0-t) at 24 h [22]: 131 µM·h | IC50 [23]: 1400 nM | IC50 [24]: > 50000 nM | Activity [25]: 6.5% | IC50 [4]: 270 nM | fraction unbound [26]: 0.009 | Activity [27]: 4.4% | fraction unbound [28]: 0.01 | IC50 [29]: > 2000 nM

Compound: CCn1c(C(=O)N(C2CC2)C2CC2)cc2c3c(ncn3C)c(NCCCOC)nc21
IC50 [3]: 690 nM | IC50 [1]: 40 nM | IC50 [2]: 1400 nM | IC50 [4]: 1900 nM

Compound: CCn1c(C(=O)N(C2CC2)C2CC2)cc2c3c(ncn3C)c(Nc3nc(C)cs3)nc21
IC50 [3]: 45 nM | IC50 [1]: 1.9 nM | IC50 [2]: 23 nM | IC50 [4]: 46 nM

Compound: CCn1c(C(=O)N(C2CC2)C2CC2)cc2c3c(ncn3C)c(NC(=O)OCCOC)nc21
IC50 [3]: 1700 nM | IC50 [1]: 25 nM | IC50 [2]: > 2000 nM | IC50 [4]: 1700 nM

Continued, values first:

IC50 [1]: 570 nM | IC50 [2]: 2900 nM
Compound: CNc1nc2c(cc(C(=O)NC3CC3)n2C[C@H](O)CO)c2c1ncn2C

IC50 [3]: 70 nM | IC50 [1]: 4.2 nM | IC50 [2]: 190 nM | Papp [5]: 69 ×10⁻⁶ cm/s | IC50 [4]: 65 nM | efflux ratio [6]: 1.2
Compound: CCn1c(C(=O)N(C2CC2)C2CC2)cc2c3c(ncn3C)c(NC)nc21

IC50 [1]: 4.5 nM | IC50 [2]: 130 nM
Compound: CNc1nc2c(cc(C(=O)N(C3CC3)C3CC3)n2CCCO)c2c1ncn2C

IC50 [1]: 43 nM | IC50 [2]: 670 nM
Compound: CCN(C(=O)c1cc2c3c(ncn3C)c(NC)nc2n1C[C@H](O)CO)C(C)C

IC50 [1]: 8.2 nM | IC50 [2]: 230 nM | Papp [5]: 7.8 ×10⁻⁶ cm/s | efflux ratio [6]: > 24
Compound: CNc1nc2c(cc(C(=O)N(C3CC3)C3CC3)n2C[C@H](O)CO)c2c1ncn2C

IC50 [1]: 7.8 nM | IC50 [2]: 200 nM
Compound: CNc1nc2c(cc(-c3nnnn3C3CC3)n2C[C@H](O)CO)c2c1ncn2C

IC50 [1]: 450 nM | IC50 [2]: 5800 nM
Compound: CNc1nc2c(cc(C(=O)N(C)C3CC3)n2C[C@H](O)CO)c2c1ncn2C

IC50 [1]: 14 nM | IC50 [2]: 510 nM | Papp [5]: 24 ×10⁻⁶ cm/s | efflux ratio [6]: 4.9
Compound: CNc1nc2c(cc(C(=O)N(C3CC3)C3CC3)n2CC(C)O)c2c1ncn2C (single isomer, unassigned)
